First: CC(=O)Nc1cccc(-c2ccc(C#N)c(=O)[nH]2)c1
Second: CCN(CC)c1ccc(N=Nc2ccc(C#N)c(C#N)c2)c(NC(C)=O)c1
The melting point of the first is higher: 326 to 328 °C for the first, 181 to 182 °C for the second.

Compared with `O=c1ccc(S(=O)(=O)c2cc3ccc(F)cc3[nH]2)n[nH]1`, `Cc1cccc(S(=O)(=O)Cc2c(C(F)(F)F)n[nH]c2O)c1` is lower in melting point: greater than 250 °C for the first, 130 to 133 °C for the second.

First: O=S(=O)(c1ccccc1)n1ncc2c(OCCCl)cccc21
Second: CCCOc1ccccc1C(=O)Nc1ncccc1C(N)=O
The melting point of the first is lower: 102 to 104 °C for the first, 181 to 184 °C for the second.

First: CN1CCN(CC/C=C/c2cc3ncc(C#N)c(Nc4ccc(Sc5nccn5C)c(Cl)c4)c3cc2F)CC1
Second: COc1ccc(-n2c(=O)n(O)c(=O)c3cc(F)c(N4CCN(C)CC4)cc32)cc1
The melting point of the first is lower: 188 to 194 °C for the first, 195 to 196 °C for the second.

First: CC(=O)NCCn1c(O)nc2ccc(Cl)nc21
Second: Cc1nc2ccc(Cl)cc2c(=O)n1CCCn1ccnc1
The melting point of the first is higher: 200 to 220 °C for the first, 190 to 192 °C for the second.

Going from `COc1nn(-c2cccc(NC(C)=O)c2)c(=O)n(Cc2ccc3c(c2)OC(F)(F)O3)c1=O` to `COC(=O)c1cc(-c2ccc(C)c(C)c2)n(Cc2ccc(F)cc2)n1`, the melting point falls from 184 °C to 93 °C.

Compared with `CC(C)n1nc(-c2c(OCc3ccccn3)nc(N)nc2-c2ccccc2)ccc1=O`, `COCCCn1nnnc1-c1cc(-c2cccc(C(=O)OC)c2)c(OCc2ccccc2)cc1OCc1ccccc1` is lower in melting point: 177 to 178 °C for the first, 105 to 108 °C for the second.

First: C[C@H](C(O)C(c1ccc(F)cc1F)n1cncn1)S(=O)(=O)[C@@H]1CNCCN1c1ccccc1 (some centres undefined)
Second: CC(=O)N1CCN(c2cccc(-n3cnc4cc(C(C)O)ccc43)c2)CC1 (centres undefined)
The melting point of the first is higher: 135 to 137 °C for the first, 126 °C for the second.

First: CCc1cc2c(=O)[nH]c(CO)nc2s1
Second: CCc1cc(CCc2nc3ccccc3o2)c(=S)[nH]c1C
The melting point of the first is higher: 202 °C for the first, 199 to 201 °C for the second.

First: Cn1cc(C2CCN(CCn3cnc4ccccc4c3=O)CC2)c2ccccc21
Second: COc1c(C2CCN(CCCCNC(=O)c3ccc(-c4ccc(NS(C)(=O)=O)cc4)cc3)CC2)ccc2c1CCCC2
The melting point of the first is lower: 78 °C for the first, 200 to 202 °C for the second.

Compared with `CCCCCCCCCCCCCCOC(=O)c1cc(C(=O)OCCCCCCCCCCCCCC)cc(N(CC(=O)O)CC(=O)O)c1`, `CCCCCCCCCCc1ccc(CCC(N)(CO)CCO)cc1` (centres undefined) is lower in melting point: 84 to 87 °C for the first, 69 to 72 °C for the second.

First: Cc1cc(NCc2ccc3oc(-c4ccccc4C#N)c(Br)c3c2)n2nccc2n1
Second: CCCCc1nc(Cl)c(C=O)n1Cc1ccc(-c2ccccc2C#N)cc1
The melting point of the first is higher: 210 to 215 °C for the first, 96 to 97 °C for the second.

First: COCC(=O)c1cnc2c(OC)cccc2c1Cl
Second: COCCOc1ccc(CO)c(Oc2ncc(C(F)(F)F)cc2Cl)c1
The melting point of the first is higher: 96 to 98 °C for the first, 85 to 85.5 °C for the second.

First: CNS(=O)(=O)c1ccc(CCN2CC=C(c3c[nH]c(-c4ccc(F)cc4)c3-c3ccncc3)CC2)cc1OC
Second: COc1cc(C(=O)O)ccc1-c1ccc(-c2ccccc2)c(-c2ccc3c(c2)C(C)(C)CCC3(C)C)c1
The melting point of the first is higher: 245 to 247 °C for the first, 144 to 146 °C for the second.

First: CC(C)(C)OC(=O)N1CCC(n2cc(-c3ccc(Oc4ccccc4)cc3)c3c(N)ncnc32)CC1
Second: O=C(c1ccc(C2=CCCc3ccccc32)cc1Cl)N1Cc2cccn2Cc2ccccc21
The melting point of the first is lower: 168 to 170 °C for the first, 174 to 176 °C for the second.

First: CC(C)(C)c1onc(NC(=O)C2CC2)c1Cl
Second: CC(C)(C)c1cc(C(=O)C2CC2)cc(C(C)(C)C)c1O
The melting point of the first is lower: 130 to 131 °C for the first, 140 to 142 °C for the second.

First: O=C(Cn1ccnc1)c1ccc(Cl)cn1
Second: O=C(O)Cc1ccc2c(c1)C(=O)c1cc(Cl)ccc1CO2
The melting point of the first is lower: 122 to 129 °C for the first, 169 to 171 °C for the second.

Compared with `CCNc1cccc(C#CCCn2nc3ccccc3n2)n1`, `COC(=O)Nc1cn2c(S(=O)c3ccccc3)cccc2n1` (centres undefined) is higher in melting point: 73 to 78 °C for the first, 249 to 251 °C for the second.

First: Cc1cccc(C(=O)NC(Nc2c(Nc3cccnc3)c(=O)c2=O)C(C)(C)Cc2ccncc2)c1 (centres undefined)
Second: Cc1c[nH]c(-c2ccnc(NC(=O)c3ccccc3)c2)n1
The melting point of the first is higher: 219 to 221 °C for the first, 133 to 135 °C for the second.

First: CC(C)c1cccc(C(C)C)c1NC(=O)CSCCCCCCCCCCCCN1CCN(c2ccccc2)CC1
Second: CC(C)[C@H](NC(=O)OC(C)(C)C)C(=O)NCCCN1CCN(CCCNc2cccc3c2C(=O)c2ccccc2C3=O)CC1
The melting point of the first is lower: 76.5 to 77.5 °C for the first, 108 °C for the second.

Compared with `N#Cc1c(N2CCc3ccccc3CC2)nc2n(c1=O)CCC2`, `CN1CCC(=C2c3ccccc3Sc3ccc(C(=O)O)cc32)CC1` is higher in melting point: 184 to 190 °C for the first, 319 to 323 °C for the second.

First: CSc1ccc(C(=O)c2ccc(SC)cc2O)cc1
Second: COC(=O)c1ccc(C(=O)N[C@@H]2CCCC[C@@H]2c2ccc(OC)c(OC)c2)cc1
The melting point of the first is lower: 113 to 114 °C for the first, 154 to 156 °C for the second.

First: CCCc1[nH]c2ccc(OC)cc2c1C=O
Second: COc1ccc2c(c1)c(-c1cc3nccnc3[nH]1)cn2CCO
The melting point of the first is lower: 166 to 168 °C for the first, 270 to 273 °C for the second.

Compared with `CC(C)Nc1cccnc1N1CCN(C(=O)c2ccc(C(=O)NCCN3CCOCC3)cc2)CC1`, `COc1ccc(C2(CCN3CCC(C(=O)c4nc5ccccc5n4Cc4ccc(F)cc4)CC3)CCN(C(=O)c3cc(OC)c(OC)c(OC)c3)C2)cc1OC` (centres undefined) is lower in melting point: 114 to 116 °C for the first, 80 to 83 °C for the second.

First: Cc1nnc(-c2ccc3occ(C(=O)NCCC(N)=O)c3c2)o1
Second: COC(=O)Cc1c(C)c2ccc(O)cc2oc1=O
The melting point of the first is higher: 242 to 243 °C for the first, 194 to 196 °C for the second.

Compared with `O=Cc1ccn2c1CCC2`, `CC(C)(C)c1ccc(O)c(C2=CCCCC2)c1` is higher in melting point: 58 °C for the first, 90 to 93 °C for the second.

First: CCCCCOc1ccc(-c2ncc(C#N)cn2)cc1
Second: CCCCC(CC)CNCCOc1ccc2ccccc2c1 (centres undefined)
The melting point of the first is higher: 98 to 98.1 °C for the first, 92 °C for the second.

First: O=C(O)CCn1cc(Br)c2c3c(c(-c4ccccc4Cl)cc21)C(=O)NC3=O
Second: COc1cc2c(=O)n(CCCc3ccccc3)c3cc(OC)c(OC)cc3c2cc1OC
The melting point of the first is lower: 182 to 186 °C for the first, 209 to 211 °C for the second.

First: CCCCC1OC(=O)COC1=O (centres undefined)
Second: COCCOCC(=O)N(c1c(C)c(C)cc2ccccc12)C1CCOC1=O (centres undefined)
The melting point of the first is lower: 37 to 39 °C for the first, 142 to 146 °C for the second.

First: O=C(Nc1ccc(-n2nc(C(F)(F)F)cc2C(F)(F)F)cc1)c1ccc(F)c(Cl)c1
Second: COc1cccc2oc(-c3ccc(C(F)(F)F)cc3)cc(=O)c12
The melting point of the first is lower: 138 to 139 °C for the first, 190 to 191 °C for the second.

Going from `Oc1ccc(-c2cnc(-c3ccccc3)[nH]c2=S)cc1O` to `CNC(=O)c1cc(Br)cc(-c2ccccc2)c1`, the melting point falls from 220 °C to 132 °C.

Compared with `CNC(=O)Oc1cc(C)c(NS(C)(=O)=O)c(C)c1`, `C=C(C)C(=O)Oc1ccccc1NS(C)(=O)=O` is lower in melting point: 178 to 185 °C for the first, 88 to 90 °C for the second.

First: CC=Cn1c(C(O)(c2ccc(Cl)cc2)c2ccc(Cl)cc2)nc(C)c1C
Second: CNC(=O)C(C)CCn1c(COc2ccc(Cl)cc2)nc2c(C)cccc21 (centres undefined)
The melting point of the first is lower: 127 to 128 °C for the first, 168 °C for the second.

First: CN1C(=O)Cc2cc(CCCl)ccc21
Second: O=C(NN1CCCCC1)c1nn(-c2ccc(Cl)cc2Cl)c2c1CCc1sc(Br)cc1-2
The melting point of the first is lower: 136 °C for the first, 145 °C for the second.

First: CC(C)(C)OC(=O)COc1ccc(-c2c(Cl)c(CN3C(=O)CCC3=O)nc3sc4c(c23)CCSC4)cc1
Second: O=C(ONC1CCCCC1)c1n[nH]c2c(=O)[nH]c3cc(Cl)ccc3c(=O)c12
The melting point of the first is lower: 191 to 192 °C for the first, 220 °C for the second.

Compared with `COc1cccc(S(=O)(=O)NC(C)(C)C)c1`, `CC(=O)Nc1cc(Br)ccc1S(C)(=O)=O` is higher in melting point: 100 °C for the first, 157 to 160 °C for the second.

First: CCCCNc1nc(N)nc2c1ncn2C1CC(N=[N+]=[N-])C(CO)O1 (centres undefined)
Second: CCCCCC(CC(=O)O)c1ccc(OC)cc1OC (single isomer, unassigned; (+))
The melting point of the first is lower: 44 to 47 °C for the first, 51 to 52 °C for the second.

First: Cc1ccc(S(=O)(=O)OC[C@H]2COc3ccc([N+](=O)[O-])cc3O2)cc1
Second: Cc1ccc(C(=O)C(=C2NCCCS2)[N+](=O)[O-])cc1
The melting point of the first is lower: 138 °C for the first, 141 to 143 °C for the second.

First: CCN(C(=O)C1(C(=O)O)CC1)c1ccc(Cl)cc1
Second: CCOC(=O)C(O)C(Oc1ccccc1[N+](=O)[O-])c1ccccc1 (centres undefined)
The melting point of the first is lower: 99 to 101 °C for the first, 129 to 131 °C for the second.

First: CC[C@@H](C)[C@H](N)C(O)(c1ccccc1)c1ccccc1
Second: CC(C)C[C@H](NC(=O)OCc1ccccc1)C(=O)N[C@@H](Cc1ccccc1)C(=O)CS
The melting point of the first is lower: 128 to 129 °C for the first, 171 °C for the second.

First: COC(=O)C=Cc1nc(C(=O)CCCC(=O)OC)ccc1OC
Second: COc1cc(C2(C)COc3c(OC)cc(C=O)cc32)ccc1O (centres undefined)
The melting point of the first is lower: 87 to 89 °C for the first, 162 to 165 °C for the second.

Compared with `N#Cc1sc2cc(NC(=O)OCc3ccccc3)ccc2c1Cl`, `COc1ccccc1-c1ccccc1C#N` is lower in melting point: 155 to 166 °C for the first, 54 to 55 °C for the second.

First: N#Cc1ncn2c(C(F)(F)F)cc(-c3ccccc3)nc12
Second: CC(C)(NC=O)c1ccc(C(F)(F)C(F)(F)c2ccccc2)cc1
The melting point of the first is higher: 202 °C for the first, 116 to 117 °C for the second.

Compared with `O=c1oc2ccccc2c(O)c1C1CC(c2ccc(Oc3ccc(-c4ccc(Cl)cc4)cc3)cc2)Cc2ccccc21` (centres undefined), `O=C(CCc1ccccc1)N[C@H](Cc1cccc(Oc2ccccc2)c1)[C@@H](O)c1ccc(F)cc1` (racemic) is lower in melting point: 132 °C for the first, 91 to 93 °C for the second.

First: CCC1(C)NC(=O)C(C)(CC)N1 (centres undefined)
Second: CS(=O)(=O)Cc1cc(F)cc(F)c1
The melting point of the first is lower: 58 to 64 °C for the first, 135 °C for the second.

First: Clc1nc[nH]c2ncc(I)c1-2
Second: FC(F)(F)C1(c2cc(Cl)cc(Cl)c2)CC(c2ccc(Br)nc2)=NO1 (centres undefined)
The melting point of the first is higher: 195 to 196 °C for the first, 147 to 148 °C for the second.

First: N#Cc1ccc(COc2cccc(OCc3ccc4ccccc4n3)c2)cc1
Second: CN(Cc1ccc(NC(=O)C2=Cc3cc(-c4ccc(OC(F)(F)F)cc4)ccc3S(=O)(=O)CC2)cc1)C1CCOCC1
The melting point of the first is lower: 112 °C for the first, 261 to 263 °C for the second.

Compared with `FC(F)(F)c1cc(CN2CCc3cc(OC[C@H]4CO[C@](Cn5ccnc5)(c5ccc(Cl)cc5Cl)O4)ccc3C2)ccc1Cl` (racemic), `CCCCCc1ccc(-c2ccc(-c3cc(F)c(C(F)(F)Oc4cc(F)c(C(F)(F)F)c(F)c4)c(F)c3)c(F)c2)cc1` is lower in melting point: 107 to 108 °C for the first, 96 °C for the second.

First: CNC(=O)CCNC(=O)NOCCCl
Second: CC(=O)SCC(C)C(=O)N(CC(=O)O)C1CCCCC1 (centres undefined)
The melting point of the first is lower: 125 to 126 °C for the first, 142 to 144 °C for the second.

Compound `COc1ccc(/C=C(\C#N)c2ccccc2F)cc1OC1CCCC1` has a melting point of 70 to 73 °C.
